How the values were obtained:
[1] = test system: ISC-enriched organoids; test: Secondary (validation) screen, 384-well 2.5-D, ENR+CD 6 days, n=8 wells, vs ENR+CD+DMSO control: ATP (CTG); assay type: cell-based, murine; set-up: key to Dose.FC.CTG: log10 fold change vs median of vehicle control wells
Method: (§1) Drugs were tested at a narrowed dose range around each treatment's identified optimal dose from the primary screen (4× below, 2× above and below).
(§2) High-throughput screening.
(§3) Secondary lysozyme secretion assay screen. Confirmatory secondary screening with primary hits was performed using the above 384-well plate method. The screen was conducted with 4-plate replicates with a base media of ENR+CD. Media was supplemented with compound at day 0 and day 3 (n=8 well replicates per dose) at four different doses: two-fold above, two-fold below, and four-fold below the optimal final dose for each respective treatment. Additionally, each plate carried a large number of ENR+DMSO or ENR+CD+DMSO (vehicle) control wells (n=100 for ATP, and n=25 for LYZ.NS and LYZ.S) for robust normalization. ATP, non-stimulated lysozyme activity and CCh-stimulated lysozyme activity was again measured and the collected data was again processed in a custom R-script, per primary screen with slight modification. Values were log10 transformed, and a plate-wise FC was calculated for each well based on the median value of ENR+CD+DMSO (vehicle) control wells to normalize plate to plate variability.

[2] = test system: ISC-enriched organoids; test: Primary screen, 384-well 2.5-D organoid differentiation (ENR+CD, 6 days, Target Selective Inhibitor Library, vs whole-plate median): ATP (CellTiter-Glo 3D, CTG); conditions: for Z.CTG: standard z score of FC; for Dose.FC.CTG: ENR+CD, 6 days, FC vs plate median
[3] = test system: ISC-enriched organoids; test: Secondary (validation) screen, 384-well 2.5-D, ENR+CD 6 days, n=8 wells, vs ENR+CD+DMSO control: basal lysozyme secretion (LYZ.NS); assay type: cell-based, murine; set-up: key to Dose.FC.LYZ.NS: log10 fold change vs median of vehicle control wells
Method: as §1, §2, §3

[4] = test system: ISC-enriched organoids; test: Secondary (validation) screen, 384-well 2.5-D, ENR+CD 6 days, n=8 wells, vs ENR+CD+DMSO control: carbachol-induced lysozyme secretion (LYZ.S); assay type: cell-based, murine
Method: as §1, §2, §3

[5] = test system: ISC-enriched organoids; test: Primary screen, 384-well 2.5-D organoid differentiation (ENR+CD, 6 days): basal lysozyme secretion (LYZ.NS); assay type: cell-based, murine; conditions: for Dose.FC.LYZ.NS: ENR+CD, 6 days, FC vs plate median; for Z.LYZ.NS: standard z score of FC
Description: as §2

[6] = test system: ISC-enriched organoids; test: Primary screen, 384-well 2.5-D organoid differentiation (ENR+CD, 6 days): carbachol-induced lysozyme secretion (LYZ.S); assay type: cell-based, murine; conditions: ENR+CD, 6 days, FC vs plate median
Description: as §2

Work on `COc1cc(Nc2c(C#N)cnc3cc(OCCCN4CCN(C)CC4)c(OC)cc23)c(Cl)cc1Cl` [Bosutinib (SKI-606), Bosutinib] yielded a Z.CTG ([1]; Dose 0.02 uM) of 1.944, a repSSMD.CTG ([1]; Dose 0.02 uM) of 1.251 and a Z.CTG ([1]; Dose 0.04 uM) of 1.254. The repSSMD.CTG ([1]; Dose 0.04 uM) was 0.876, the Z.CTG ([1]; dose 0.08 uM) was 0.735 and the repSSMD.CTG ([1]; dose 0.08 uM) was 0.584. The Z.CTG ([2]; primary screen, dose 0.08 uM) was 1.499, the Z.CTG ([2]; primary screen, dose 0.40 uM) was 0.720 and the Z.CTG ([2]; primary screen, dose 2.00 uM) was −0.405. For the same compound, the Z.CTG ([2]; primary screen, dose 10.00 uM) was −1.595, the Z.LYZ.NS ([3]; Dose 0.02 uM) was 1.061 and the repSSMD.LYZ.NS ([3]; Dose 0.02 uM) was 1.620. The Z.LYZ.NS ([3]; Dose 0.04 uM) was −0.535, the repSSMD.LYZ.NS ([3]; Dose 0.04 uM) was −0.666 and the Z.LYZ.NS ([3]; dose 0.08 uM) was −0.562. For the same compound, the repSSMD.LYZ.NS ([3]; dose 0.08 uM) was −0.903, the repSSMD.LYZ.S ([4]; Dose 0.02 uM) was 1.147 and the Z.LYZ.S ([4]; Dose 0.04 uM) was −0.663. For the same compound, the repSSMD.LYZ.S ([4]; Dose 0.04 uM) was −0.977, the Z.LYZ.S ([4]; dose 0.08 uM) was −0.554 and the repSSMD.LYZ.S ([4]; dose 0.08 uM) was −0.892.
Compound `NC1(Cc2ccc(Cl)cc2)CCN(c2ncnc3[nH]ccc23)CC1` [CCT128930, reference compound] has a Dose.FC.LYZ.NS ([5]; Dose 0.08 uM) of 0.323 log 2 fold change, a Z.LYZ.NS ([5]; Dose 0.08 uM) of 2.811 and a Dose.FC.LYZ.NS ([5]; Dose 0.40 uM) of −0.018 log 2 fold change. The Z.LYZ.NS ([5]; Dose 0.40 uM) was −0.154, the Dose.FC.LYZ.NS ([5]; Dose 2.00 uM) was 0.073 log 2 fold change and the Z.LYZ.NS ([5]; Dose 2.00 uM) was 0.633. For the same compound, the Dose.FC.LYZ.NS ([5]; Dose 10.00 uM) was −0.150 log 2 fold change, the Z.LYZ.NS ([5]; Dose 10.00 uM) was −1.307 and the Dose.FC.CTG ([1]; Dose 0.02 uM) was −0.117. It also gave a Z.CTG ([1]; Dose 0.02 uM) of −1.054, a repSSMD.CTG ([1]; Dose 0.02 uM) of −0.787 and a Dose.FC.CTG ([1]; Dose 0.04 uM) of 0.122. The Z.CTG ([1]; Dose 0.04 uM) was 1.101, the repSSMD.CTG ([1]; Dose 0.04 uM) was 0.922 and the Dose.FC.CTG ([1]; Dose […]) was −0.088. It also gave a Dose.FC.CTG ([1]; dose 0.08 uM) of 0.166, a Z.CTG ([1]; dose 0.08 uM) of 1.494 and a repSSMD.CTG ([1]; dose 0.08 uM) of 1.047. For the same compound, the Dose.FC.CTG ([2]; Dose 0.08 uM) was 0.095 log 2 fold change, the Z.CTG ([2]; Dose 0.08 uM) was 0.228 and the Dose.FC.CTG ([2]; Dose 0.40 uM) was −0.025 log 2 fold change. It also gave a Z.CTG ([2]; Dose 0.40 uM) of −0.060, a Dose.FC.CTG ([2]; Dose 2.00 uM) of 0.127 log 2 fold change and a Z.CTG ([2]; Dose 2.00 uM) of 0.304. It also gave a Dose.FC.CTG ([2]; Dose 10.00 uM) of −0.175 log 2 fold change, a Z.CTG ([2]; Dose 10.00 uM) of −0.418 and a Dose.FC.LYZ.NS ([3]; Dose 0.02 uM) of −0.241. For the same compound, the Z.LYZ.NS ([3]; Dose 0.02 uM) was −1.927, the repSSMD.LYZ.NS ([3]; Dose 0.02 uM) was −2.551 and the Dose.FC.LYZ.NS ([3]; Dose 0.04 uM) was −0.020. It also gave a Z.LYZ.NS ([3]; Dose 0.04 uM) of −0.164, a repSSMD.LYZ.NS ([3]; Dose 0.04 uM) of −0.204 and a Dose.FC.LYZ.NS ([3]; Dose […]) of −0.160. The Dose.FC.LYZ.NS ([3]; dose 0.08 uM) was 0.031, the Z.LYZ.NS ([3]; dose 0.08 uM) was 0.248 and the repSSMD.LYZ.NS ([3]; dose 0.08 uM) was 0.366. It also gave a Dose.FC.LYZ.S ([6]; Dose 0.08 uM) of 0.266 log 2 fold change, a Dose.FC.LYZ.S ([6]; Dose 0.40 uM) of −0.007 log 2 fold change and a Dose.FC.LYZ.S ([6]; Dose 2.00 uM) of 0.053 log 2 fold change. For the same compound, the Dose.FC.LYZ.S ([6]; Dose 10.00 uM) was −0.201 log 2 fold change, the Z.LYZ.S ([4]; Dose 0.02 uM) was −2.445 and the “log10 fold change in stimulated lysozyme secretion vs vehicle control” value (“log10 fold change” for short) ([4]; Dose 0.02 uM) was −0.319. The repSSMD.LYZ.S ([4]; Dose 0.02 uM) was −3.825, the Z.LYZ.S ([4]; Dose 0.04 uM) was −0.108 and the “log10 fold change” value ([4]; Dose 0.04 uM) was −0.014. For the same compound, the repSSMD.LYZ.S ([4]; Dose 0.04 uM) was −0.157, the “log10 fold change” value ([4]; Dose […]) was −0.217 and the Z.LYZ.S ([4]; dose 0.08 uM) was 0.041. The “log10 fold change” value ([4]; dose 0.08 uM) was 0.005 and the repSSMD.LYZ.S ([4]; dose 0.08 uM) was 0.069.
`CCOc1ccc(Cc2cc([C@@H]3O[C@H](CO)[C@@H](O)[C@H](O)[C@H]3O)ccc2Cl)cc1` [Dapagliflozin] showed a Z.CTG ([1]; Dose 0.02 uM) of 0.770, a repSSMD.CTG ([1]; Dose 0.02 uM) of 0.643 and a Z.CTG ([1]; Dose 0.04 uM) of 1.569. The repSSMD.CTG ([1]; Dose 0.04 uM) was 0.979, the Z.CTG ([1]; dose 0.08 uM) was 1.346 and the repSSMD.CTG ([1]; dose 0.08 uM) was 0.777. It also gave a Z.CTG ([2]; Dose 0.08 uM) of 0.980, a Z.CTG ([2]; Dose 0.40 uM) of 0.607 and a Z.CTG ([2]; Dose 2.00 uM) of 0.699. It also gave a Z.CTG ([2]; Dose 10.00 uM) of 0.719, a Z.LYZ.NS ([3]; Dose 0.02 uM) of 0.173 and a repSSMD.LYZ.NS ([3]; Dose 0.02 uM) of 0.231. It also gave a Z.LYZ.NS ([3]; Dose 0.04 uM) of 1.197, a repSSMD.LYZ.NS ([3]; Dose 0.04 uM) of 1.267 and a Z.LYZ.NS ([3]; dose 0.08 uM) of 0.462. The repSSMD.LYZ.NS ([3]; dose 0.08 uM) was 0.537, the Z.LYZ.S ([4]; Dose 0.02 uM) was −0.144 and the repSSMD.LYZ.S ([4]; Dose 0.02 uM) was −0.225. For the same compound, the Z.LYZ.S ([4]; Dose 0.04 uM) was 0.528, the repSSMD.LYZ.S ([4]; Dose 0.04 uM) was 0.751 and the Z.LYZ.S ([4]; dose 0.08 uM) was 0.530. The repSSMD.LYZ.S ([4]; dose 0.08 uM) was 0.879.
For `CC(C)(C)NC(=O)[C@H]1CC[C@H]2[C@@H]3CC[C@H]4NC(=O)C=C[C@]4(C)[C@H]3CC[C@]12C` [Finasteride], the Z.CTG ([1]; Dose 0.02 uM) was 0.596, the repSSMD.CTG ([1]; Dose 0.02 uM) was 0.358 and the Z.CTG ([1]; Dose 0.04 uM) was −1.623. The repSSMD.CTG ([1]; Dose 0.04 uM) was −0.994, the Z.CTG ([1]; dose 0.08 uM) was −0.099 and the repSSMD.CTG ([1]; dose 0.08 uM) was −0.083. For the same compound, the Z.CTG ([2]; Dose 0.08 uM) was 0.360, the Z.CTG ([2]; Dose 0.40 uM) was −0.092 and the Z.CTG ([2]; Dose 2.00 uM) was 0.174. The Z.CTG ([2]; Dose 10.00 uM) was −0.097, the Z.LYZ.NS ([3]; Dose 0.02 uM) was 0.445 and the repSSMD.LYZ.NS ([3]; Dose 0.02 uM) was 0.362. For the same compound, the Z.LYZ.NS ([3]; Dose 0.04 uM) was −1.510, the repSSMD.LYZ.NS ([3]; Dose 0.04 uM) was −2.570 and the Z.LYZ.NS ([3]; dose 0.08 uM) was −1.522. It also gave a repSSMD.LYZ.NS ([3]; dose 0.08 uM) of −2.177, a Z.LYZ.S ([4]; Dose 0.02 uM) of −0.147 and a repSSMD.LYZ.S ([4]; Dose 0.02 uM) of −0.197. The Z.LYZ.S ([4]; Dose 0.04 uM) was −1.996, the repSSMD.LYZ.S ([4]; Dose 0.04 uM) was −3.825 and the Z.LYZ.S ([4]; dose 0.08 uM) was −1.859. It also gave a repSSMD.LYZ.S ([4]; dose 0.08 uM) of −2.574.

From patent US20230398130A1, “METHODS AND COMPOSITIONS FOR DIFFERENTIATING STEM CELLS” (Massachusetts Institute of Technology, priority 2020, published 2023)
